Measured values from ChEMBL document CHEMBL1143399, “A small-molecule nitroimidazopyran drug candidate for the treatment of tuberculosis” (Nature, 2000).
≈ marks a conversion by molar mass, not a printed value. Calls of active or inactive are those of the source. No cut-off for these calls is given here.

Key:
[1] = test system: Mycobacterium tuberculosis; assay: Antimicrobial activity against log phase recombinant Mycobacterium tuberculosis H37Rv-lux with plasmid MV361 at 10 ug/ml incubated for 7 days assessed as bacterial count after 4 days; format: functional
[2] = test system: Mycobacterium tuberculosis; assay: Antimicrobial activity against log phase recombinant Mycobacterium tuberculosis H37Rv-lux with plasmid MV361 at 10 ug/ml incubated for 7 days assessed as bacterial count; format: functional
[3] = test system: Mycobacterium tuberculosis; assay: Antimycobacterial activity against pan-susceptible Mycobacterium tuberculosis TN1037; format: functional
[4] = test system: Mycobacterium tuberculosis; assay: Antimycobacterial activity against pan-susceptible Mycobacterium tuberculosis H37Rv; format: functional
[5] = test system: Mycobacterium tuberculosis; assay: Antimycobacterial activity against pan-susceptible Mycobacterium tuberculosis TN913; format: functional
[6] = test system: Mycobacterium tuberculosis; assay: Antimycobacterial activity against pan-susceptible Mycobacterium tuberculosis TN1008; format: functional
[7] = test system: Mycobacterium tuberculosis; assay: Antimycobacterial activity against pan-susceptible Mycobacterium tuberculosis TN1040; format: functional
[8] = test system: Mycobacterium tuberculosis; assay: Antimycobacterial activity against pan-susceptible Mycobacterium tuberculosis TN1051; format: functional
[9] = test system: Mycobacterium tuberculosis; assay: Antimycobacterial activity against pan-susceptible Mycobacterium tuberculosis TN1082; format: functional
[10] = test system: Mycobacterium tuberculosis; assay: Antimycobacterial activity against pan-susceptible Mycobacterium tuberculosis TN2351; format: functional
[11] = test system: Mycobacterium tuberculosis; assay: Antimycobacterial activity against pan-susceptible Mycobacterium tuberculosis TN2524; format: functional
[12] = test system: Mycobacterium tuberculosis; assay: Antimycobacterial activity against pan-susceptible Mycobacterium tuberculosis TN3183; format: functional
[13] = test system: Mycobacterium tuberculosis; assay: Antimycobacterial activity against pan-susceptible Mycobacterium tuberculosis TN3979; format: functional
[14] = test system: Mycobacterium tuberculosis; assay: Antimycobacterial activity against pan-susceptible Mycobacterium tuberculosis TN4259; format: functional
[15] = test system: Mycobacterium tuberculosis; assay: Antimycobacterial activity against Mycobacterium tuberculosis clinical isolate IS6110 infected in mouse at 25 mg/kg, po; format: functional, organism-based; design: dose 25 mg/kg
[16] = test system: Mycobacterium tuberculosis; assay: Antimycobacterial activity against Mycobacterium tuberculosis H37Rv with plasmid MH102 infected in BALB/c mouse assessed as reduction in mycobacterial burden in spleen at 25 mg/kg, po daily after 4 days of infection for 10 days relative to isoniazid; format: functional, organism-based; design: dose 25 mg/kg
[17] = test system: Mycobacterium tuberculosis; assay: Antimycobacterial activity against Mycobacterium tuberculosis H37Rv with plasmid MH102 infected in BALB/c mouse assessed as reduction in mycobacterial burden in lung at 25 mg/kg, po daily after 4 days of infection for 10 days relative to isoniazid; format: functional, organism-based; design: dose 25 mg/kg
[18] = test system: Mycobacterium tuberculosis; assay: Antimycobacterial activity against Mycobacterium tuberculosis H37Rv with plasmid MH102 infected in BALB/c mouse assessed as reduction in mycobacterial burden in lung at 50 mg/kg, po daily after 4 days of infection for 7 to 60 days relative to isoniazid; format: functional, organism-based; design: dose 50 mg/kg
[19] = test system: Mycobacterium tuberculosis; assay: Antimycobacterial activity against Mycobacterium tuberculosis H37Rv with plasmid MH102 infected in BALB/c mouse assessed as reduction in mycobacterial burden in lung at 100 mg/kg, po daily after 4 days of infection for 7 to 60 days relative to isoniazid; format: functional, organism-based; design: dose 100 mg/kg
[20] = test system: Mycobacterium tuberculosis; assay: Antimycobacterial activity against Mycobacterium tuberculosis H37Rv ATCC 27294 infected in Hartley guinea pig assessed as reduction in mycobacterial burden in lung at 40 mg/kg, po daily after 30 days of infection for 30 days relative to isoniazid; format: functional, organism-based; design: dose 40 mg/kg
[21] = test system: Mycobacterium tuberculosis; assay: Antimycobacterial activity against Mycobacterium tuberculosis H37Rv ATCC 27294 infected in Hartley guinea pig assessed as reduction in mycobacterial burden in spleen at 40 mg/kg, po daily after 30 days of infection for 30 days relative to isoniazid; format: functional, organism-based; design: dose 40 mg/kg
Mus musculus [22] = assay: Acute toxicity in Mycobacterium tuberculosis H37Rv infected BALB/c mouse at >1000 mg/kg, po single dose; format: organism-based; conditions: in vivo
Mus musculus [23] = assay: Chronic toxicity in Mycobacterium tuberculosis H37Rv infected BALB/c mouse at >500 mg/kg, po for 28 days; format: organism-based; conditions: in vivo, 672 h

SMILES	log10cfu [1]	log10cfu [2]	MIC [3] [µg/mL]	MIC [4] [µg/mL]	MIC [5] [µg/mL]	MIC [6] [µg/mL]	MIC [7] [µg/mL]	MIC [8] [µg/mL]	MIC [9] [µg/mL]	MIC [10] [µg/mL]	MIC [11] [µg/mL]	MIC [12] [µg/mL]	MIC [13] [µg/mL]	MIC [14] [µg/mL]	also measured
CCC1Cn2cc([N+](=O)[O-])nc2O1 (stereo unspecified)	1.5	1.8													
NNC(=O)c1ccncc1 [ISONIAZID]	1	1.4	0.03 (≈ 0.219 µM)	0.03 (≈ 0.219 µM)	0.03 (≈ 0.219 µM)	0.06 (≈ 0.438 µM)	0.03 (≈ 0.219 µM)	0.03 (≈ 0.219 µM)	0.03 (≈ 0.219 µM)	0.06 (≈ 0.438 µM)	0.06 (≈ 0.438 µM)	0.03 (≈ 0.219 µM)	0.06 (≈ 0.438 µM)	0.03 (≈ 0.219 µM)	
Cc1ncc([N+](=O)[O-])n1CCO [METRONIDAZOLE]	3.2	2.8													
O=[N+]([O-])c1cn2c(n1)OC[C@@H](OCc1ccc(OC(F)(F)F)cc1)C2 [PRETOMANID]	3.1	3.5	0.06 (≈ 0.167 µM)	0.13 (≈ 0.362 µM)	0.06 (≈ 0.167 µM)	0.06 (≈ 0.167 µM)	0.13 (≈ 0.362 µM)	0.06 (≈ 0.167 µM)	0.06 (≈ 0.167 µM)	0.06 (≈ 0.167 µM)	0.25 (≈ 0.696 µM)	0.015 (≈ 0.0418 µM)	0.13 (≈ 0.362 µM)	0.06 (≈ 0.167 µM)	Activity [15]: Active; Activity [16]: Active; Activity [17]: Active; Activity [18]: Active; Activity [19]: Active; Activity [20]: Active; Activity [21]: Active; Activity (Mus musculus [22]): Toxic; Activity (Mus musculus [23]): Toxic
